Reference: ChEMBL document CHEMBL4002601, “A triple exon-skipping luciferase reporter assay identifies a new CLK inhibitor pharmacophore” (Bioorg Med Chem Lett, 2017)

Tests used:
[1] = target: Tyrosine-protein kinase JAK2 (Homo sapiens) (UniProt O60674); assay: Inhibition of human JAK2 using KTFCGTPEYLAPEVRREPRILSEEEQEMFRDFDYIADWC as substrate in presence of [gamma-33P]ATP at 1 uM after 40 mins by scintillation counter method
[2] = target: Tyrosine-protein kinase ABL1 (Homo sapiens) (UniProt P00519); assay: Inhibition of human Abl using EAIYAAPFAKK as substrate in presence of [gamma-33P]ATP at 1 uM after 40 mins by scintillation counter method
Chain of Tyrosine-protein kinase ABL1 (Homo sapiens) (P00519 whole entry): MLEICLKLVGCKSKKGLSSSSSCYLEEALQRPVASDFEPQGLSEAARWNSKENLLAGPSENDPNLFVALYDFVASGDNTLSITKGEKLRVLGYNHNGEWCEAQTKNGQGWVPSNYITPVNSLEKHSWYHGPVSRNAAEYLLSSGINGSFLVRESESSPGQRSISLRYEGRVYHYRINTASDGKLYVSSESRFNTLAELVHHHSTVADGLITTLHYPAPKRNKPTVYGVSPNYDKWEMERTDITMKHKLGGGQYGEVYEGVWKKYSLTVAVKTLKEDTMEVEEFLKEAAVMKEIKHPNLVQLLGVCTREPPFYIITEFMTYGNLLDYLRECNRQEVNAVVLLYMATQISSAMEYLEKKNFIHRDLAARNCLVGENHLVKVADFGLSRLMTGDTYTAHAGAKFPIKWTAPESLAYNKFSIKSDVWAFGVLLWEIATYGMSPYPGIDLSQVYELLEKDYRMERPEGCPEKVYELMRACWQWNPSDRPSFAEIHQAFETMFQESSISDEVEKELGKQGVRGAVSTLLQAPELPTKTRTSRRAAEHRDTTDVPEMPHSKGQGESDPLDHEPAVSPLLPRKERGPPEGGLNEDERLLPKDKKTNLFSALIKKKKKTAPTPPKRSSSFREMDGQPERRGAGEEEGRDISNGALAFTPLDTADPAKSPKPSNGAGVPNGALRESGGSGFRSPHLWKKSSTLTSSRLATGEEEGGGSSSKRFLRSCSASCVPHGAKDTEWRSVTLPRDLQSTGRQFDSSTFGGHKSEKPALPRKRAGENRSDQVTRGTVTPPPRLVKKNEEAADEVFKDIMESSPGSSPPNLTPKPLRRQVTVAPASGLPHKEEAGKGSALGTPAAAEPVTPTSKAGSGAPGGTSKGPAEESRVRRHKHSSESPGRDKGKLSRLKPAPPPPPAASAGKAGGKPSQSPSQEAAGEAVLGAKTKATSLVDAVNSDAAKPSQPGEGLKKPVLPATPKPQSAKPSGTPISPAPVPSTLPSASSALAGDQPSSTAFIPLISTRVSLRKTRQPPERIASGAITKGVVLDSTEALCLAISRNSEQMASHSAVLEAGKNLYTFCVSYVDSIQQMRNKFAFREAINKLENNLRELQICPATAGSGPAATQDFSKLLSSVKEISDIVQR

[3] = target: T1, Inhibitor of nuclear factor kappa-B kinase subunit beta (Homo sapiens) (UniProt O14920); assay: Inhibition of human IKKbeta using KKKKERLLDDRHDSGLDSMKDEE as substrate in presence of [gamma-33P]ATP at 1 uM after 40 mins by scintillation counter method
T1 sequence (whole entry): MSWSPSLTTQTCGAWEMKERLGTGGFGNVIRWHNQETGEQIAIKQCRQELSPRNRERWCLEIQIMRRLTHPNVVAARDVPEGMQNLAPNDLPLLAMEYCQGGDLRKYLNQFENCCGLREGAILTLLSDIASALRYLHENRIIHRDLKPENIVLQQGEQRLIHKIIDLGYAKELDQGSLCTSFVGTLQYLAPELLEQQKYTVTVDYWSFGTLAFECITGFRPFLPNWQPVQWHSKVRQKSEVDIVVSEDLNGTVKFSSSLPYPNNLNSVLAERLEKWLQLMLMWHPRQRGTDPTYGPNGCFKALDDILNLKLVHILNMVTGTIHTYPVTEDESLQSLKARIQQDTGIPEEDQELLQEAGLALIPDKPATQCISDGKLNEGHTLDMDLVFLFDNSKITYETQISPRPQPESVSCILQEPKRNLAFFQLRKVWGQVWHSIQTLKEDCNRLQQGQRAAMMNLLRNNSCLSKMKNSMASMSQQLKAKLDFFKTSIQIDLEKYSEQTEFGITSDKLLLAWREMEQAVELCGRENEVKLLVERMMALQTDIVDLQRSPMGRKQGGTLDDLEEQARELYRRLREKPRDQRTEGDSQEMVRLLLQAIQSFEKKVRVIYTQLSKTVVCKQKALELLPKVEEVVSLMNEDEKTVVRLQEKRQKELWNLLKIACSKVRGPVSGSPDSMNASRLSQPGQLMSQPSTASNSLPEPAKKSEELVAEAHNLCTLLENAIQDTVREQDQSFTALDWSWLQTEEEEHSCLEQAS

[4] = target: Mitogen-activated protein kinase 9 (Homo sapiens) (UniProt P45984); assay: Inhibition of human JNK2alpha2 using ATF2 as substrate in presence of [gamma-33P]ATP at 1 uM after 40 mins by scintillation counter method
Chain of Mitogen-activated protein kinase 9 (Homo sapiens) (P45984 whole entry, looked up): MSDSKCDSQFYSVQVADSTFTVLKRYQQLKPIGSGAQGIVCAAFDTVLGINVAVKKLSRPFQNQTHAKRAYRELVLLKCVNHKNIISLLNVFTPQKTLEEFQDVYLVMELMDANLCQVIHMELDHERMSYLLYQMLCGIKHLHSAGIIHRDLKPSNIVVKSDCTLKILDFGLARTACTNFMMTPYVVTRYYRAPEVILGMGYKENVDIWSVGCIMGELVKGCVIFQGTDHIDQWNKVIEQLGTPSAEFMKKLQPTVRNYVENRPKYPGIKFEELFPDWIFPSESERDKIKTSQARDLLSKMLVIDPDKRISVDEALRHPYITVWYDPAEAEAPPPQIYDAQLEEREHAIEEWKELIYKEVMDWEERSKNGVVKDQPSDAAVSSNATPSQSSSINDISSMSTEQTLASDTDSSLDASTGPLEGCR

[5] = target: Mitogen-activated protein kinase 10 (Homo sapiens) (UniProt P53779); assay: Inhibition of human JNK3 using substrate in presence of [gamma-33P]ATP at 1 uM after 40 mins by scintillation counter method
Chain of Mitogen-activated protein kinase 10 (Homo sapiens) (P53779 whole entry): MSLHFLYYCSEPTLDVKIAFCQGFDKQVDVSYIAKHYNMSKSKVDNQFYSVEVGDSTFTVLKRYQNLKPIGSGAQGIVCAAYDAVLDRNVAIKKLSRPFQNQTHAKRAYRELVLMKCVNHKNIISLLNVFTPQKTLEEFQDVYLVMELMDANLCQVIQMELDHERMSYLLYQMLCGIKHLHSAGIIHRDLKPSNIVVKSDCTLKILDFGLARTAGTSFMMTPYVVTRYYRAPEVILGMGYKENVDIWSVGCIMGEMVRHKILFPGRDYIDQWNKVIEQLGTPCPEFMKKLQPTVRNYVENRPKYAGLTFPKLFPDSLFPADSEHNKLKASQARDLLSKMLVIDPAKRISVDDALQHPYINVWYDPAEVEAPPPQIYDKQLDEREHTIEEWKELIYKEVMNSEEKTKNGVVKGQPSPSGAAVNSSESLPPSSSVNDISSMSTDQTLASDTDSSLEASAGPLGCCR

[6] = target: Epidermal growth factor receptor (Homo sapiens) (UniProt P00533); assay: Inhibition of human EGFR using poly(Glu, Tyr) 4:1 as substrate in presence of [gamma-33P]ATP at 1 uM after 40 mins by scintillation counter method
[7] = target: ALK tyrosine kinase receptor (Homo sapiens) (UniProt Q9UM73); assay: Inhibition of human ALK using casein as substrate in presence of [gamma-33P]ATP at 1 uM after 40 mins by scintillation counter method
Chain of ALK tyrosine kinase receptor (Homo sapiens) (Q9UM73 19-1620 limits assumed): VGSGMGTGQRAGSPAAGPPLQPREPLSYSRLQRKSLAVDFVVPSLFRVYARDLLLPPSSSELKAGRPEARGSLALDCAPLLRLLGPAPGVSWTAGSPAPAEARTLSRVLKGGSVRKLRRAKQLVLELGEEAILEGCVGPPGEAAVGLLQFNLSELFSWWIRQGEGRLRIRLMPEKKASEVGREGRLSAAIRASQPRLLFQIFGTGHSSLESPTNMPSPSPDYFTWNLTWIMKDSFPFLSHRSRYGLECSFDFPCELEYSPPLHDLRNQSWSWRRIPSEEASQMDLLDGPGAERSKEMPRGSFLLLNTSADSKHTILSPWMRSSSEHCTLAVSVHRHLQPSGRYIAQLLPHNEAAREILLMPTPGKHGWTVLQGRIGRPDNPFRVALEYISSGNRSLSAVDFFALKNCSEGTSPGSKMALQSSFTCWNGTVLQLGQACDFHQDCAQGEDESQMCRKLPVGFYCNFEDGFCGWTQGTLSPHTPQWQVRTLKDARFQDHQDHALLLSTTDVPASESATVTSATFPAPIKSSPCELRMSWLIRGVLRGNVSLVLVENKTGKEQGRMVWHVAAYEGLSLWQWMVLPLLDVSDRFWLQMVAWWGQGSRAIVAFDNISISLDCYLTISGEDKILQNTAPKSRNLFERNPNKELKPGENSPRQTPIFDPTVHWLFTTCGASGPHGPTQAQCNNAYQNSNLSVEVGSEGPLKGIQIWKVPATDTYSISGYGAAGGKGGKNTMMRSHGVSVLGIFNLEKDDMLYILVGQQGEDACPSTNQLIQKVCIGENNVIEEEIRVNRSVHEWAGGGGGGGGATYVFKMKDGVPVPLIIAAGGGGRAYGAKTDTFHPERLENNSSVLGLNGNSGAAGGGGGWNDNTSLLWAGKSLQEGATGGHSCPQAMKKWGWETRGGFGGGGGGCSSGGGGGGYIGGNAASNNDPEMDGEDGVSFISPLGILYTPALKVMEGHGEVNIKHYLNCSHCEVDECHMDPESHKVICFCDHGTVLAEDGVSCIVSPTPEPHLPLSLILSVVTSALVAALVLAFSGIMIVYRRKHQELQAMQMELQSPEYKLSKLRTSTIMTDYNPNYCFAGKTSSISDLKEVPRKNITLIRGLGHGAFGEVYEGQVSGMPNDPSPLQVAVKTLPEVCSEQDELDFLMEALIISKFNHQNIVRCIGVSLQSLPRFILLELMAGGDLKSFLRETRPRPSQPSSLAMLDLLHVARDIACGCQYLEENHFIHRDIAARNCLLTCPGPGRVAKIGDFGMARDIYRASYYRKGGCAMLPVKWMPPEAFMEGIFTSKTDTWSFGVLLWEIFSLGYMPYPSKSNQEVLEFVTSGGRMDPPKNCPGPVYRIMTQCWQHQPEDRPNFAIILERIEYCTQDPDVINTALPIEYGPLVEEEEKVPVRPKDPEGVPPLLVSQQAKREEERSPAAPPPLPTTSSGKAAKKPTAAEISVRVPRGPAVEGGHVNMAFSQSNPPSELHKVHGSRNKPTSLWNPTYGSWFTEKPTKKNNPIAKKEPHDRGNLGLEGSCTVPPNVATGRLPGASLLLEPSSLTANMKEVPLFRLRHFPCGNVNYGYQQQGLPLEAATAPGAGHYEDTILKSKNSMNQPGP

[8] = target: Mitogen-activated protein kinase 8 (Homo sapiens) (UniProt P45983); assay: Inhibition of human JNK1alpha1 using ATF2 as substrate in presence of [gamma-33P]ATP at 1 uM after 40 mins by scintillation counter method
Chain of Mitogen-activated protein kinase 8 (Homo sapiens) (P45983 whole entry): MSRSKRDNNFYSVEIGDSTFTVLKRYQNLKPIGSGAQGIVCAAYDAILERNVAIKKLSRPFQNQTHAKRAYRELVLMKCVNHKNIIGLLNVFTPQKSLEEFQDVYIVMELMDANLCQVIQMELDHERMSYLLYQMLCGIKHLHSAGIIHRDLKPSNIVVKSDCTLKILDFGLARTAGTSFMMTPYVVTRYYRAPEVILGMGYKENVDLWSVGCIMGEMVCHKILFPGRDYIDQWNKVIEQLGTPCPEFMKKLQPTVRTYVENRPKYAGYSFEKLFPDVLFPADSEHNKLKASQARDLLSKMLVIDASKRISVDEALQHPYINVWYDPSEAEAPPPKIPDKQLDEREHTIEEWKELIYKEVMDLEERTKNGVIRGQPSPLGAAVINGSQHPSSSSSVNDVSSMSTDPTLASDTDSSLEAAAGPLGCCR

[9] = target: Serine/threonine-protein kinase B-raf (Homo sapiens) (UniProt P15056); assay: Inhibition of human BRAF using myelin basic protein as substrate in presence of [gamma-33P]ATP at 1 uM after 40 mins by scintillation counter method
Chain of Serine/threonine-protein kinase B-raf (Homo sapiens) (P15056 whole entry): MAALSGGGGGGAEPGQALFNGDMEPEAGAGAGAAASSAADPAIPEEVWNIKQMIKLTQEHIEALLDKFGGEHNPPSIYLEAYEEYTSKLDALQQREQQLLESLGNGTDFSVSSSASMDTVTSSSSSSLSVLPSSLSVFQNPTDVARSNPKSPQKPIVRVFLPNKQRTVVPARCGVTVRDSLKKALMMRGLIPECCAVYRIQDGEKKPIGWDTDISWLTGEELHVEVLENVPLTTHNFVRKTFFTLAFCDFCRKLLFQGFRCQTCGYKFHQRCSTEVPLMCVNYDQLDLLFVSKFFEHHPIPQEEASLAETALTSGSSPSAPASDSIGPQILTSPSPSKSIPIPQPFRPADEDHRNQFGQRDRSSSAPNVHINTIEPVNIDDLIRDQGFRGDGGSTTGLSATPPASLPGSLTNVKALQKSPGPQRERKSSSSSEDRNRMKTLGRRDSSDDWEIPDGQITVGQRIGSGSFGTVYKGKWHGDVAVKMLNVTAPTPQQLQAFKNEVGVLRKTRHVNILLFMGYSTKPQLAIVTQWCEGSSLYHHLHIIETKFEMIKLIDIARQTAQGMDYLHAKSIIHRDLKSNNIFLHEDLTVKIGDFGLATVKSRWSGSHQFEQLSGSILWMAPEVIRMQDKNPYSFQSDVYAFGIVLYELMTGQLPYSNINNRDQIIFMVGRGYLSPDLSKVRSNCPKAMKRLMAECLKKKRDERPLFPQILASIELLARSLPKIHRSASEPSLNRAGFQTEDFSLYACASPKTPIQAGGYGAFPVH

[10] = target: Receptor tyrosine-protein kinase erbB-2 (Homo sapiens) (UniProt P04626); assay: Inhibition of human ErbB2 using poly(Glu, Tyr) as substrate in presence of [gamma-33P]ATP at 1 uM after 40 mins by scintillation counter method
[11] = target: T2, Tyrosine-protein kinase JAK3 (Homo sapiens) (UniProt P52333); assay: Inhibition of human JAK3 using GGEEEEYFELVKKKK as substrate in presence of [gamma-33P]ATP at 1 uM after 40 mins by scintillation counter method
T2 sequence (whole entry): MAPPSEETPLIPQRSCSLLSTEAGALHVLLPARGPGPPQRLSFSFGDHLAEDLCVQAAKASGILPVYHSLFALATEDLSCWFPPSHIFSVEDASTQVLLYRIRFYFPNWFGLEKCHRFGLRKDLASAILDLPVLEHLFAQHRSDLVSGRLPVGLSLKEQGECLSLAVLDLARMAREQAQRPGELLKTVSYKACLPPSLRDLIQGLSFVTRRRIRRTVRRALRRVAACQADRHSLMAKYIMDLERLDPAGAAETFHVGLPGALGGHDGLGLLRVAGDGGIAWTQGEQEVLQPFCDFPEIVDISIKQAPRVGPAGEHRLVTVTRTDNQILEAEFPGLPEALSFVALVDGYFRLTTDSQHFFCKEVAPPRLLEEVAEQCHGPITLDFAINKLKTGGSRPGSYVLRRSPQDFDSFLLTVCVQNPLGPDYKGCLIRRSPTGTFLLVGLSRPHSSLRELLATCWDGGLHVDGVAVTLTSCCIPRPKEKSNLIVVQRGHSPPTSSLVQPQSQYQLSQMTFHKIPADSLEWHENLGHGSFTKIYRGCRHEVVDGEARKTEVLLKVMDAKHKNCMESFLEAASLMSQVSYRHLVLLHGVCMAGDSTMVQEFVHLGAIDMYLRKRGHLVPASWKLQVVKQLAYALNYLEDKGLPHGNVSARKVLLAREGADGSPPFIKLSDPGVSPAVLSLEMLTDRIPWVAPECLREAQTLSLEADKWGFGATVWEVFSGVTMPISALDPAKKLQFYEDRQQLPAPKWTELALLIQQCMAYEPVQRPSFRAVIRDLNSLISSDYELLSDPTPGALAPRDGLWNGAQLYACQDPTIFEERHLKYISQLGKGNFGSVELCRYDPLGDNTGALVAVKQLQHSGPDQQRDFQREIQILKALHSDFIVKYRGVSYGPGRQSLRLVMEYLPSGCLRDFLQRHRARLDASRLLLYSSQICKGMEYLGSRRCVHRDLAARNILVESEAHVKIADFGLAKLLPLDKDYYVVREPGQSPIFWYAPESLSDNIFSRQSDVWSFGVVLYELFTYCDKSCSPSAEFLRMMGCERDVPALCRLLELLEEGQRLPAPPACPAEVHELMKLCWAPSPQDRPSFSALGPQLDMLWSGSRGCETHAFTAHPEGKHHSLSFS

Q: With `CC(C)n1cnc2c(Nc3cccc(Cl)c3)nc(N[C@H]3CCCC[C@@H]3N)nc21` as the compound, how does the inhibition [1] read?
A: -6%

Q: What about the inhibition [2] of the same compound?
A: -2%

Q: What about the inhibition [3] of the same compound?
A: -2%

Q: What about the inhibition [4] of the same compound?
A: 1%

Q: And the inhibition [5]?
A: 6%

Q: And the inhibition [6]?
A: -6%

Q: What about the inhibition [7] of the same compound?
A: 7%

Q: And the inhibition [8]?
A: 3%

Q: And the inhibition [9]?
A: 10%

Q: What about the inhibition [10] of the same compound?
A: 2%

Q: What about the inhibition [11] of the same compound?
A: 0%

Q: For `CC(C)n1cnc2c(Nc3cc(N)cc(Cl)c3)nc(N[C@@H]3CCCC[C@@H]3N)nc21` (racemic), which inhibition [1] is on record?
A: 8%

Q: What about the inhibition [2] of the same compound?
A: 8%

Q: What about the inhibition [3] of the same compound?
A: -9%

Q: And the inhibition [4]?
A: -6%

Q: What about the inhibition [5] of the same compound?
A: -10%

Q: What about the inhibition [6] of the same compound?
A: -1%

Q: And the inhibition [7]?
A: 10%

Q: What about the inhibition [8] of the same compound?
A: -6%

Q: What about the inhibition [9] of the same compound?
A: 5%

Q: What about the inhibition [10] of the same compound?
A: 3%

Q: And the inhibition [11]?
A: 0%

Q: How did the inhibition [1] turn out when `CC(C)n1cnc2c(Nc3cccc(Cl)c3)nc(N[C@@H]3CCCC[C@@H]3N)nc21` was run?
A: 2%

Q: What about the inhibition [2] of the same compound?
A: 2%

Q: And the inhibition [3]?
A: -5%

Q: And the inhibition [4]?
A: 4%

Q: What about the inhibition [5] of the same compound?
A: -5%

Q: What about the inhibition [6] of the same compound?
A: 3%

Q: And the inhibition [7]?
A: -2%

Q: And the inhibition [8]?
A: -1%

Q: And the inhibition [9]?
A: 21%

Q: What about the inhibition [10] of the same compound?
A: 0%

Q: And the inhibition [11]?
A: 4%
